US4100346A, “Certain 7(o-amino-methyl- or methylaminomethylphenyl- or cyclohexadienyl- or thienylacetamide)-3[1-carboxymethyl-(or ethyl- or propyl-)-tetrazol-5-ylthiomethyl]-3-cephem-4-carboxylic acids” (Bristol-Myers Company, priority 1976, dated 1978)
Values after ≈ are worked out from the molar mass of the structure shown. Structures can show the parent of a compound that is named as a salt.

What was measured:
[1] = Blood level in mice after intramuscular injection (Example 7); type: in vivo; conditions: mouse, im, intramuscularly, 10 mg./kg. of body weight, at 15 minutes
Procedure: The IR and NMR were consistent with the title product, but indicated about 20% impurities, primarily starting material. When this compound was administered intramuscularly by injection at a dose of 10 mg./kg. of body weight in mice, a blood level of […]. was obtained at 15 minutes.

D. pneumoniae = assay: MIC by Tube Dilution Technique in Nutrient Broth (Example 9 table); type: cell-based; conditions: Streptococcus pneumoniae; Dp-4 D. pneumoniae A9585
Excerpt: (§1) MIC (mcg./ml.) by Tube Dilution Technique in Nutrient Broth.

E. cloacae = assay: as above; type: cell-based; conditions: Enterobacter cloacae; El-1 E. cloacae A9656
Excerpt: as §1

E. coli [2] = assay: as above; type: cell-based; conditions: Escherichia coli
Excerpt: as §1

K. pneumoniae [3] = assay: as above; type: cell-based; conditions: Klebsiella pneumoniae
Excerpt: as §1

P. aeruginosa = assay: as above; type: cell-based; conditions: Pseudomonas aeruginosa; P. aeruginosa A9843
Excerpt: as §1

P. mirabilis = assay: as above; type: cell-based; conditions: Proteus mirabilis; Pm-2 P. mirabilis A9900
Excerpt: as §1

P. morganii = assay: as above; type: cell-based; conditions: Morganella morganii; Pg-8 P. morganii A15153
Excerpt: as §1

S. aureus [4] = assay: as above; type: cell-based; conditions: Staphylococcus aureus
Excerpt: as §1

S. enteritidis = assay: as above; type: cell-based; conditions: Salmonella enterica; Se-1 S. enteritidis A9531
Excerpt: as §1

S. marcescens = assay: as above; type: cell-based; conditions: Serratia marcescens; Sm-1 S. marcescens A20019
Excerpt: as §1

S. pyogenes = assay: as above; type: cell-based; conditions: Streptococcus pyogenes; Sp-3 S. pyogenes A9604
Excerpt: as §1

[5] = Solubility in water, buffer or urine
[6] = Stability of aqueous solutions at room temperature (loss of activity)
physchem = conditions: solid
Str. pneumoniae = assay: M.I.C. by Tube Dilution in Nutrient Broth (Examples 1 and 2); type: cell-based; conditions: Streptococcus pneumoniae; Str. pneumoniae A9585 (10^-3 dilution of overnight broth culture); 45% Antibiotic Assay Broth + 50% Nutrient Broth + 5% serum
Excerpt: (§2) *45% Antibiotic Assay Broth + 50% Nutrient Broth + 5% serum
(§3) **Dilution of overnight broth culture

Str. pyogenes = assay: as above; type: cell-based; conditions: Streptococcus pyogenes; Str. pyogenes A9604 (10^-3); 45% Antibiotic Assay Broth + 50% Nutrient Broth + 5% serum
Excerpt: as §2, §3

E. coli [7] = assay: as above; type: cell-based; conditions: Escherichia coli
Excerpt: (§4) | **Dilution of overnight broth culture

Ent. cloacae = assay: as above; type: cell-based; conditions: Enterobacter cloacae
Excerpt: as §4

K. pneumoniae [8] = assay: as above; type: cell-based; conditions: Klebsiella pneumoniae
Excerpt: as §4

Pr. mirabilis = assay: as above; type: cell-based; conditions: Proteus mirabilis; Pr. mirabilis A9900 (10^-4)
Excerpt: as §4

Pr. morganii = assay: as above; type: cell-based; conditions: Morganella morganii; Pr. morganii A15153 (10^-4)
Excerpt: as §4

Ps. aeruginosa = assay: as above; type: cell-based; conditions: Pseudomonas aeruginosa; read-out: M.I.C.
Excerpt: as §4

S. aureus [9] = assay: as above; type: cell-based; conditions: Staphylococcus aureus
Excerpt: as §4

Sal. enteritidis = assay: as above; type: cell-based; conditions: Salmonella enterica; Sal. enteritidis A9531 (10 ^4)
Excerpt: as §4

Ser. marcescens = assay: as above; type: cell-based; conditions: Serratia marcescens; Ser. marcescens A20019 (10^-4)
Excerpt: as §4

[10] = Solid stability at elevated temperatures

Compound: NCc1ccccc1CC(=O)N[C@@H]1C(=O)N2C(C(=O)O)=C(CSc3nnnn3CCC(=O)O)CS[C@H]12 [Example 7, 7-(2-aminomethylphenylacetamido)-3-(1-carboxyethyltetrazol-5-ylthiomethyl)-3-cephem-4-carboxylic acid]
- concentration at 0.25 h [1]: 22300 µg/mL

Compound: Cn1nnnc1SCC1=C(C(=O)O)N2C(=O)[C@@H](NC(=O)[C@H](O)c3ccccc3)[C@H]2SC1 [Cefamandole]
- MIC (D. pneumoniae): 0.08 µg/mL (≈ 0.173 µM)
- MIC (E. cloacae): 50 µg/mL (≈ 108 µM)
- MIC (E. coli [2]; Ec-1 E. coli NIHJ): 1.6 µg/mL (≈ 3.46 µM)
- MIC (E. coli [2]; Ec-3 E. coli Juhl A15119): 0.8 µg/mL (≈ 1.73 µM)
- MIC (E. coli [2]; Ec-58 E. coli A9675): 3.1 µg/mL (≈ 6.7 µM)
- MIC (K. pneumoniae [3]; Kp-3 K. pneumoniae A9977): 0.8 µg/mL (≈ 1.73 µM)
- MIC (K. pneumoniae [3]; Kp-4 K. pneumoniae A15130): 6.3 µg/mL (≈ 13.6 µM)
- MIC (P. aeruginosa): > 100 µg/mL
- MIC (P. mirabilis): 0.8 µg/mL (≈ 1.73 µM)
- MIC (P. morganii): 3.1 µg/mL (≈ 6.7 µM)
- MIC (S. aureus [4]; Sa-2 S. aureus +50% serum): 1.6 µg/mL (≈ 3.46 µM)
- MIC (S. aureus [4]; Sa-2 S. aureus Smith A9537): 0.8 µg/mL (≈ 1.73 µM)
- MIC (S. aureus [4]; Sa-11 S. aureus BX-1633 A9606): 1.6 µg/mL (≈ 3.46 µM)
- MIC (S. aureus [4]; Sa-44 S. aureus A15097): 3.1 µg/mL (≈ 6.7 µM)
- MIC (S. enteritidis): 0.4 µg/mL (≈ 0.865 µM)
- MIC (S. marcescens): > 100 µg/mL
- MIC (S. pyogenes): 0.08 µg/mL (≈ 0.173 µM)

Compound: Cn1nnnc1SCC1=C(C(=O)O)N2C(=O)[C@@H](NC(=O)Cc3ccccc3CN)[C@H]2SC1 [7-(o-aminomethylphenylacetamido)-3-(1-methyl-1,2,3,4-tetrazol-5-ylthiomethyl)-3-cephem-4-carboxylic acid]
- lowest pH able to dissolve 150 mg./ml. ([5]; room temperature): 10.3
- solubility ([5]; solubility, in both buffered aqueous media and in dog urine at room temperature): 1 to 3 mg/mL (≈ 2100 to 6310 µM)

Compound: CNCc1ccsc1CC(=O)N[C@@H]1C(=O)N2C(C(=O)O)=C(CSc3nnnn3CC(=O)O)CS[C@H]12 [Example 9, 7-(3-N-methylaminomethyl-2-thienylacetamido)-3-(1-carboxymethyltetrazol-5-ylthiomethyl)-3-cephem-4-carboxylic Acid]
- MIC (D. pneumoniae): 0.08 µg/mL (≈ 0.148 µM)
- MIC (E. cloacae): 50 µg/mL (≈ 92.7 µM)
- MIC (E. coli [2]; Ec-1 E. coli NIHJ): 0.8 µg/mL (≈ 1.48 µM)
- MIC (E. coli [2]; Ec-3 E. coli Juhl A15119): 0.8 µg/mL (≈ 1.48 µM)
- MIC (E. coli [2]; Ec-58 E. coli A9675): 12.5 µg/mL (≈ 23.2 µM)
- MIC (K. pneumoniae [3]; Kp-3 K. pneumoniae A9977): 0.2 µg/mL (≈ 0.371 µM)
- MIC (K. pneumoniae [3]; Kp-4 K. pneumoniae A15130): 1.6 µg/mL (≈ 2.97 µM)
- MIC (P. aeruginosa): > 100 µg/mL
- MIC (P. mirabilis): 0.4 µg/mL (≈ 0.741 µM)
- MIC (P. morganii): 12.5 µg/mL (≈ 23.2 µM)
- MIC (S. aureus [4]; Sa-2 S. aureus +50% serum): 3.1 µg/mL (≈ 5.74 µM)
- MIC (S. aureus [4]; Sa-2 S. aureus Smith A9537): 3.1 µg/mL (≈ 5.74 µM)
- MIC (S. aureus [4]; Sa-11 S. aureus BX-1633 A9606): 6.3 µg/mL (≈ 11.7 µM)
- MIC (S. aureus [4]; Sa-44 S. aureus A15097): 12.5 µg/mL (≈ 23.2 µM)
- MIC (S. enteritidis): 0.2 µg/mL (≈ 0.371 µM)
- MIC (S. marcescens): > 100 µg/mL
- MIC (S. pyogenes): 0.08 µg/mL (≈ 0.148 µM)

Compound: NCc1ccccc1CC(=O)N[C@@H]1C(=O)N2C(C(=O)O)=C(CSc3nnnn3CC(=O)O)CS[C@H]12 [Example 8, Monosodium BL-S786 Dihydrate]
- Solubility in water ([5]; water, Dihydrate): > 400 mg/mL
- Stability of 250,000 unit/ml. solution ([6]; 24 hours at room temperature): No loss

Compound: NCc1ccccc1CC(=O)N[C@@H]1C(=O)N2C(C(=O)O)=C(CSc3nnnn3CC(=O)O)CS[C@H]12 [BL-S786: L-Lysine Salt]
- degraded at 730 h (physchem): < 10%

Compound: NCC1=C(CC(=O)N[C@@H]2C(=O)N3C(C(=O)O)=C(CSc4nnnn4CC(=O)O)CS[C@H]23)CC=CC1 [Example 2, 7-(2-Aminomethyl-1,4-cyclohexadienylacetamido)-3-(1-carboxymethyltetrazol-5-ylthiomethyl)-3-cephem-4-carboxylic acid]
- MIC (Str. pneumoniae): 0.06 µg/mL
- MIC (Str. pyogenes): 0.13 µg/mL
- MIC (E. coli [7]; E. coli A9675 (10^-4)): 16 µg/mL (≈ 30.7 µM)
- MIC (E. coli [7]; E. coli Juhl A15119 (10^-4)): 1.3 µg/mL (≈ 2.49 µM)
- MIC (Ent. cloacae; Ent. cloacae A9657 (10^-4)): 0.3 µg/mL (≈ 0.575 µM)
- MIC (Ent. cloacae; Ent. cloacae A9659 (10^-4)): 32 µg/mL (≈ 61.4 µM)
- MIC (Ent. cloacae; Ent. cloacae A9656 (10^-4)): > 125 µg/mL
- MIC (K. pneumoniae [8]; K. pneumoniae A9977 (10^-4)): 0.3 µg/mL (≈ 0.575 µM)
- MIC (K. pneumoniae [8]; K. pneumoniae A15130 (10^-4)): 2 µg/mL (≈ 3.83 µM)
- MIC (Pr. mirabilis): 0.3 µg/mL (≈ 0.575 µM)
- MIC (Pr. morganii): 8 µg/mL (≈ 15.3 µM)
- MIC (Ps. aeruginosa): > 125 µg/mL
- MIC (S. aureus [9]; S. aureus BX1633 A9606 (10^-2)): 2.5 µg/mL (≈ 4.79 µM)
- MIC (S. aureus [9]; S. aureus BX1633 A9606 (10^-3)): 1.3 µg/mL (≈ 2.49 µM)
- MIC (S. aureus [9]; S. aureus Meth-Res A15097 (10^-3)): 4 µg/mL (≈ 7.67 µM)
- MIC (S. aureus [9]; S. aureus Smith A9537 (10^-4)): 0.5 µg/mL (≈ 0.959 µM)
- MIC (S. aureus [9]; S. aureus-50% serum A9537 (10^-4)): > 0.5 µg/mL
- MIC (Sal. enteritidis): 0.16 µg/mL (≈ 0.307 µM)
- MIC (Ser. marcescens): > 125 µg/mL

Compound: NCc1ccccc1CC(=O)N[C@@H]1C(=O)N2C(C(=O)O)=C(CSc3nnnn3CC(=O)O)CS[C@H]12 [Example 3]
- solubility ([5]; water, Solubility in water): > 500 mg/mL
- relative stability of the solid at elevated temperatures [10]: not as stable at elevated temperatures
- loss of activity in solution ([6]; 125.0 mg./ml. at pH 7.0, room temperature, at least 24 hours): no significant loss
- Stability in water (time stable) ([6]; room temperature at 250 mg./ml.): at least 24 hours
